Experimental data as given in patent publication US11304966B2, “Composition comprising HMOs for preventing or reducing nociception” (Glycom A/S, priority 2017, dated 2022).

Target: T1, GPR35 receptor (Homo sapiens, UniProt Q9HC97)
T1 construct: expressed in transfected cells
Assay: PathHunter β-Arrestin assay, activation of GPR35 expressed in cultured cells
Type: cell-based
Conditions: for activation of GPR35: up to 10 mM; for EC50: highest concentration tested 10 mM, duplicate
Description: Six human milk oligosaccharides (LNnT, LNT, 2′-FL, DFL, 6′-SL and 3′-SL) are screened for their ability to activate the GPR35 receptor in the PathHunter β-Arresin assay. This assay monitors the activation of GPR35 expressed in cultured cells, using Enzyme Fragment Complementation with β-galactosidase (β-Gal) as the functional reporter. […] EA is fused to β-Arrestin and PK is fused to GPR35. When the GPR35 is activated and β-Arrestin is recruited to the receptor, PK and EA complementation occurs, restoring β-Gal activity, which is measured using chemiluminescent Detection Reagents.
The GPR35 cell line is expanded from frozen stocks and cultured according to standard procedures. Cells are seeded in a total volume of 20 μl into white walled, 384-well microplates and incubated at 37° C. for the appropriate time prior to testing. All testing is done in duplicate. The HMO samples are held in the form of concentrated stocks in Phosphate Buffered saline (PBS). A 5× dilution compound working intermediate is prepared in PBS. Five μl of the sample is added to the cells and incubated at room temperature for 3 to 5 hours. The assay signal is generated through a single addition of 12.5 μl (50 v/v %) of PathHunter Detection reagent cocktail, followed by one-hour incubation at room temperature. Microplates are read following signal generation with a PerkinElmer Envision™ instrument for chemiluminescent signal detection. Zaprinast (which is known to be an activator of GPR35) is used as positive control. Dose-response is generated by iterative 3× dilutions of the highest concentration tested (10 mM).

T1 sequence (Q9HC97 whole entry): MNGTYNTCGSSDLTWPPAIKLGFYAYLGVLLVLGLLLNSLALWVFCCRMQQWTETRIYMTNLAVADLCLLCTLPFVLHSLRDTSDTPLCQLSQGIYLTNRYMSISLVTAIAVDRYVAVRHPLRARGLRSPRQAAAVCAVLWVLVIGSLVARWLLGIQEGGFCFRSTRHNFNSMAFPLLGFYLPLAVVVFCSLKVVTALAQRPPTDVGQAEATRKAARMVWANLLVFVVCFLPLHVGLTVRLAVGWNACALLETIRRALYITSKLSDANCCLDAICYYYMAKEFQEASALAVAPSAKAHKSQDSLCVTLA
T1 sequence (P32121 whole entry partner): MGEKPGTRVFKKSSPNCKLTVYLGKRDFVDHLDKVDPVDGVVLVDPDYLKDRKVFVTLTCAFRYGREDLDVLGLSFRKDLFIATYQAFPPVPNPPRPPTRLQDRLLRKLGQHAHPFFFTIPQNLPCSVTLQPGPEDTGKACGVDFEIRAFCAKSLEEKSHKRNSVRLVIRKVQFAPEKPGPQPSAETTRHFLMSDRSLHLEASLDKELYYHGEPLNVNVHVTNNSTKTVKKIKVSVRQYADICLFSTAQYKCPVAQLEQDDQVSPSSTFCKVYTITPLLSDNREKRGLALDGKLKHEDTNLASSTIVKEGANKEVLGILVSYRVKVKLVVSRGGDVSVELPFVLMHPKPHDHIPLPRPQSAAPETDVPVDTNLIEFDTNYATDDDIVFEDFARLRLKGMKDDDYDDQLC

Compound | activation of GPR35 | EC50 [mM]
CC(=O)N[C@H]1[C@H]([C@H](O)[C@H](O)CO)O[C@@](O[C@H]2[C@@H](O)[C@@H](CO)O[C@@H](O[C@H]3[C@H](O)[C@@H](O)C(O)O[C@@H]3CO)[C@@H]2O)(C(=O)O)C[C@@H]1O (some centres unmarked) [3′-SL, 3′-sialyllactose] | No activation | 
CC(=O)N[C@H]1[C@H]([C@H](O)[C@H](O)CO)O[C@@](OC[C@H]2O[C@@H](O[C@H]3[C@H](O)[C@@H](O)[C@H](O)O[C@@H]3CO)[C@H](O)[C@@H](O)[C@H]2O)(C(=O)O)C[C@@H]1O [6′-SL, 6′-sialyllactose] |  | 6.5
CC(=O)N[C@H]1[C@H](O[C@H]2[C@@H](O)[C@@H](CO)O[C@@H](O[C@H]3[C@H](O)[C@@H](O)C(O)O[C@@H]3CO)[C@@H]2O)O[C@H](CO)[C@@H](O[C@@H]2O[C@H](CO)[C@H](O)[C@H](O)[C@H]2O)[C@@H]1O (mixture of isomers) [LNnT, lacto-N-neotetraose] | No activation | 
C[C@@H]1O[C@@H](O[C@H]2[C@H](O[C@H]3[C@H](O[C@@H]4O[C@@H](C)[C@@H](O)[C@@H](O)[C@@H]4O)[C@@H](O)C(O)O[C@@H]3CO)O[C@H](CO)[C@H](O)[C@@H]2O)[C@@H](O)[C@H](O)[C@@H]1O (some centres unmarked) [DFL, difucosyllactose] | No activation | 
CC(=O)N[C@H]1[C@H](O[C@H]2[C@@H](O)[C@@H](CO)O[C@@H](O[C@H]3[C@H](O)[C@@H](O)C(O)O[C@@H]3CO)[C@@H]2O)O[C@H](CO)[C@@H](O)[C@@H]1O[C@@H]1O[C@H](CO)[C@H](O)[C@H](O)[C@H]1O (some centres unmarked) [LNT, lacto-N-tetraose] |  | 4.5
